According to ChEMBL document CHEMBL4665643 (Bioorg Med Chem Lett, 2019):

Tests used:
[1] = biological target: Serine/threonine-protein kinase PAK 1 (Homo sapiens) (UniProt Q13153); assay: Inhibition of recombinant human GST-tagged full length PAK1 expressed in baculovirus expression system using Ser/Thr 19 as substrate at 0.1 uM incubated for 60 mins by Z'-lyte assay relative to control
[2] = biological target: Non-receptor tyrosine-protein kinase TYK2 (Homo sapiens) (UniProt P29597); assay: Inhibition of recombinant human N-terminal GST-tagged TYK2 (833 to 1187 residues) expressed in baculovirus expression system using Tyr 03 as substrate at 0.1 uM incubated for 60 mins by Z'-Lyte assay relative to control
Chain of Non-receptor tyrosine-protein kinase TYK2 (Homo sapiens) (P29597 whole entry, the tested form may be a part): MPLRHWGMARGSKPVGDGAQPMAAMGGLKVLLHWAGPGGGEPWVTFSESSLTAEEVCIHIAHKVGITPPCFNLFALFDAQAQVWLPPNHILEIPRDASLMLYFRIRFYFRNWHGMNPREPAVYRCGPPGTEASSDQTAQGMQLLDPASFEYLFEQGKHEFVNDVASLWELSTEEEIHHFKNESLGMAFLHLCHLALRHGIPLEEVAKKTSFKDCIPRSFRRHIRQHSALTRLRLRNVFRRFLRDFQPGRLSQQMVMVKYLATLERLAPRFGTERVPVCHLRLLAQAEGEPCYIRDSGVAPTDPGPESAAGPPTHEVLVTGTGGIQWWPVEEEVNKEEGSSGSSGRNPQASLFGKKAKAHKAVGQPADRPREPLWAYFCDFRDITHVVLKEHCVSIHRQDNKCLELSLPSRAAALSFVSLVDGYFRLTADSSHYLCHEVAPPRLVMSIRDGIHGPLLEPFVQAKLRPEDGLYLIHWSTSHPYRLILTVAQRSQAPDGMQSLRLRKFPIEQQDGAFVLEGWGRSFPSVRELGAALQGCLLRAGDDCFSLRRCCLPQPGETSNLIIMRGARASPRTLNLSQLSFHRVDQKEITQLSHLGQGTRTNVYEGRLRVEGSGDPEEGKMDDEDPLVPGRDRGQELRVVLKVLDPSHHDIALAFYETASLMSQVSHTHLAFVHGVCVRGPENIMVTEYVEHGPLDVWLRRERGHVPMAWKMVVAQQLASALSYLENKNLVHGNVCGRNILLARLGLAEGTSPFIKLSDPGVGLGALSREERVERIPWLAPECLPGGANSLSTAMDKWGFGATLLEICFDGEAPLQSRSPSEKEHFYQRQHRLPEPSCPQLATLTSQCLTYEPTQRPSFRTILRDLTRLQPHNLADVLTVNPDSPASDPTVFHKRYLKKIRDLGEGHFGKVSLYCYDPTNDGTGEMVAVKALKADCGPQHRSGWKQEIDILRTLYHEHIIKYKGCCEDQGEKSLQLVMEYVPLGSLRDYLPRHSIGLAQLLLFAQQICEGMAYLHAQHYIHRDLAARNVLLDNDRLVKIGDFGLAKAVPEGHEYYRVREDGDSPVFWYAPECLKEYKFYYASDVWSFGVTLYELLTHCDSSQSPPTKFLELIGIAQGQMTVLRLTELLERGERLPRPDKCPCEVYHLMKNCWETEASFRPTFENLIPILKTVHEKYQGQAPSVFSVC

[3] = biological target: T1, Beta-adrenergic receptor kinase 1 (Homo sapiens) (UniProt P25098); assay: Inhibition of recombinant human His-tagged full length GRK2 expressed in baculovirus expression system using Ser/Thr 16 as substrate at 0.1 uM incubated for 60 mins by Z'-Lyte assay relative to control
T1 sequence (whole entry): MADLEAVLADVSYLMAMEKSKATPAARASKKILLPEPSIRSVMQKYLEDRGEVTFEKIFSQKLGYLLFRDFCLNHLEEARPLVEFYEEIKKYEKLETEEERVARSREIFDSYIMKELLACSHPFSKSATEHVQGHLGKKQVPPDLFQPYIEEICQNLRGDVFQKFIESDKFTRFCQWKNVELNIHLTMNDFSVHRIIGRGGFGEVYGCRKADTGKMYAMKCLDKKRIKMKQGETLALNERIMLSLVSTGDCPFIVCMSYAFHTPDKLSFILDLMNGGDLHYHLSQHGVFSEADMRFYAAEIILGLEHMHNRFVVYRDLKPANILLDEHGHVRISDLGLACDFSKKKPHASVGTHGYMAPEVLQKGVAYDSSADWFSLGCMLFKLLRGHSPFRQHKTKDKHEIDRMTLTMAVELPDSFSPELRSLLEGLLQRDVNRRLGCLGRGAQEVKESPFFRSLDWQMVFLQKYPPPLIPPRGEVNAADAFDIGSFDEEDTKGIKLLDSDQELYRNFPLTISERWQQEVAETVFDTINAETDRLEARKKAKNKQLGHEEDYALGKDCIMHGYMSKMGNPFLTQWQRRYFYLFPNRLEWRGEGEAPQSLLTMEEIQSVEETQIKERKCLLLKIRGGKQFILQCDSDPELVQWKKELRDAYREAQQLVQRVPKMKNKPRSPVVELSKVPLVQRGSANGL

[4] = biological target: Dual specificity mitogen-activated protein kinase kinase 1 (Homo sapiens) (UniProt Q02750); assay: Inhibition of recombinant human His-tagged full length MEK1 expressed in baculovirus expression system using Ser/Thr 03 as substrate at 0.1 uM incubated for 60 mins by Z'-lyte assay relative to control
Chain of Dual specificity mitogen-activated protein kinase kinase 1 (Homo sapiens) (Q02750 whole entry, the tested form may be a part): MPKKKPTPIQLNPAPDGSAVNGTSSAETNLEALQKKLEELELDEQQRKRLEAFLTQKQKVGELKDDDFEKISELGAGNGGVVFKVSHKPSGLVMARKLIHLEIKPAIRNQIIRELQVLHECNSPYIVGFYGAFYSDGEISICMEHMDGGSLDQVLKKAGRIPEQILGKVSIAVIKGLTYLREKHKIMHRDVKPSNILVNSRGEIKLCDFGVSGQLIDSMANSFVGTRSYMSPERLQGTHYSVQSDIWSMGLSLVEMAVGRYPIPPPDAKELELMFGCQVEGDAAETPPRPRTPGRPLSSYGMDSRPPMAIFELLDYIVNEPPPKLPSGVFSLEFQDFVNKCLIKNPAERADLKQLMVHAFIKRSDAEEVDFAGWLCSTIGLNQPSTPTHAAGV

[5] = biological target: Ephrin type-A receptor 4 (Homo sapiens) (UniProt P54764); assay: Inhibition of recombinant human GST-tagged EPHA4 (616 to 887 residues) expressed in baculovirus expression system using Tyr 02 as substrate at 0.1 uM incubated for 60 mins by Z'-Lyte assay relative to control
Chain of Ephrin type-A receptor 4 (Homo sapiens) (P54764 whole entry, the tested form may be a part): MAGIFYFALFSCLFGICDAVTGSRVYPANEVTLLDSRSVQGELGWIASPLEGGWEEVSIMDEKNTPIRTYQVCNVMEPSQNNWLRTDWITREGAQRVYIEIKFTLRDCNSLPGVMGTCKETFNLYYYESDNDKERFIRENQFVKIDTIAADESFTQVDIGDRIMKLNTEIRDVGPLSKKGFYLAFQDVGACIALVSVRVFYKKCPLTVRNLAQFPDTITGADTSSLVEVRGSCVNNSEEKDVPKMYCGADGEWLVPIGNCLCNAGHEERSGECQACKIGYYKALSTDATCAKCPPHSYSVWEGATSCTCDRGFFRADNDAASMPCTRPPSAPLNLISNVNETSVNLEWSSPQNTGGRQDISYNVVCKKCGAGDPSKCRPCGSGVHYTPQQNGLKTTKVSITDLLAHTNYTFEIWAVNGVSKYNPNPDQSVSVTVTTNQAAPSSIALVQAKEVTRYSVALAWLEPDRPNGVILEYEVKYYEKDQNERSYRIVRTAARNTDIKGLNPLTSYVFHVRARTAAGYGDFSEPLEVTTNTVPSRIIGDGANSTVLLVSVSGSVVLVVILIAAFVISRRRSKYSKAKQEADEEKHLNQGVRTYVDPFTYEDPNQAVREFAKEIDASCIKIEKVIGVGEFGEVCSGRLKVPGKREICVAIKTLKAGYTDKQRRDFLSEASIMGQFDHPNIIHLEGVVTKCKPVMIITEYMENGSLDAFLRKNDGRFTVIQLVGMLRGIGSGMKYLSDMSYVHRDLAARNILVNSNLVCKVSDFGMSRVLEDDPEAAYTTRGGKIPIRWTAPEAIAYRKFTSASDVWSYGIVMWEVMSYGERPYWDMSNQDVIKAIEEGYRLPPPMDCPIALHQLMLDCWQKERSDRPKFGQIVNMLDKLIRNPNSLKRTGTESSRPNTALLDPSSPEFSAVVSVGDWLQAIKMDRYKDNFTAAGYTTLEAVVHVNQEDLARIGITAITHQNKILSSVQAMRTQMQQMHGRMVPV

[6] = organism: Homo sapiens
[7] = biological target: Casein kinase I isoform alpha (Homo sapiens) (UniProt P48729); assay: Inhibition of recombinant human GST-tagged full length CK1alpha1 expressed in baculovirus expression system using Ser/Thr 11 as substrate at 0.1 uM incubated for 60 mins by Z'-Lyte assay relative to control
Chain of Casein kinase I isoform alpha (Homo sapiens) (P48729 2-337 limits assumed): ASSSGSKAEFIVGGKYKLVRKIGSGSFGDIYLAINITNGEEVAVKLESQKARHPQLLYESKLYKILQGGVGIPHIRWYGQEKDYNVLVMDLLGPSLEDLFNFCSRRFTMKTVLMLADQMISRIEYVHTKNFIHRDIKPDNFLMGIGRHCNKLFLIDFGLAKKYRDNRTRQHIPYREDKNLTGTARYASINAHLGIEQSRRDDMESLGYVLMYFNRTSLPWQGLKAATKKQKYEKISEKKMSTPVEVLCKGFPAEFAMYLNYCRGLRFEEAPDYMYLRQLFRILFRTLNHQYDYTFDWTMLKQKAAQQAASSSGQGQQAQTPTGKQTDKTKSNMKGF

[8] = biological target: Tyrosine-protein kinase CSK (Homo sapiens) (UniProt P41240); assay: Inhibition of recombinant human GST-tagged full length CSK expressed in Escherichia coli expression system using Tyr 02 as substrate at 0.1 uM incubated for 60 mins by Z'-Lyte assay relative to control
Chain of Tyrosine-protein kinase CSK (Homo sapiens) (P41240 2-450 limits assumed): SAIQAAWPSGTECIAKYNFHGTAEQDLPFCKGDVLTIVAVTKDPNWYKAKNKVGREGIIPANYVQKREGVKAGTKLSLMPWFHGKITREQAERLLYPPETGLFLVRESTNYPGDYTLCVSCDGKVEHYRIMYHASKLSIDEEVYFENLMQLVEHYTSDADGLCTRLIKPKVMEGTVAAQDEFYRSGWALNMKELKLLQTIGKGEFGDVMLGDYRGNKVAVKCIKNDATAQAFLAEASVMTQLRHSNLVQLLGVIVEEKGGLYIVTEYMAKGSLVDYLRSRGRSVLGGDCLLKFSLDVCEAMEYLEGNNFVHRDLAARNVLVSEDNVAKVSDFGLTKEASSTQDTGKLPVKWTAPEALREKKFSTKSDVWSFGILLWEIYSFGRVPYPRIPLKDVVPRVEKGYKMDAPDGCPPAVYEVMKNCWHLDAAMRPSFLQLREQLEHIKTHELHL

[9] = biological target: Casein kinase I isoform epsilon (Homo sapiens) (UniProt P49674); assay: Inhibition of recombinant human His-tagged full length CK1epsilon expressed in baculovirus expression system using Ser/Thr 11 as substrate at 0.1 uM incubated for 60 mins by Z'-Lyte assay relative to control
[10] = biological target: Mitogen-activated protein kinase 11 (Homo sapiens) (UniProt Q15759); assay: Inhibition of recombinant human His-tagged full length p38 beta expressed in baculovirus expression system using Ser/Thr 15 as substrate at 0.1 uM incubated for 60 mins by Z'-Lyte assay relative to control
[11] = biological target: Insulin receptor (Homo sapiens) (UniProt P06213); assay: Inhibition of recombinant human GST-tagged InsR (1011 to 1382 residues) expressed in baculovirus expression system using Tyr 01 as substrate at 0.1 uM incubated for 60 mins by Z'-lyte assay relative to control
Chain of Insulin receptor (Homo sapiens) (P06213 28-758 limits assumed): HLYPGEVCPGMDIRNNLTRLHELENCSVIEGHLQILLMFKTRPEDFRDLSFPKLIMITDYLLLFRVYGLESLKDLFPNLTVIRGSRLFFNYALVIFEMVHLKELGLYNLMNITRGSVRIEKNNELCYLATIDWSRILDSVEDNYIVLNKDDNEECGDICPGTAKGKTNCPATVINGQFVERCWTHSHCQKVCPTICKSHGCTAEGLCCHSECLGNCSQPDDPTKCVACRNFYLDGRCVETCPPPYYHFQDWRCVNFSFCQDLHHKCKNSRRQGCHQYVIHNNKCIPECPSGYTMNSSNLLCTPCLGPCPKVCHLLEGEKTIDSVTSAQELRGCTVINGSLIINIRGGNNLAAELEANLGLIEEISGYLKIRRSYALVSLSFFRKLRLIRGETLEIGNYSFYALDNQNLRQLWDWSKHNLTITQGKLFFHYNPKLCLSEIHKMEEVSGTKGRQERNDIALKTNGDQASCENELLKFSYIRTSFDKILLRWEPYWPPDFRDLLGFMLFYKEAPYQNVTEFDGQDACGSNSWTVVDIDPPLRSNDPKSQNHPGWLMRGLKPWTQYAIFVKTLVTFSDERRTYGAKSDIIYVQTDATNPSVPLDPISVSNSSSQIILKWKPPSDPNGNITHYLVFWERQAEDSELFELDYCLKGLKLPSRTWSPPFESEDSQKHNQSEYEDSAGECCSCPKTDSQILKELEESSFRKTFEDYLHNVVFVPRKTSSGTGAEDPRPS
Chain of Insulin receptor (Homo sapiens) (P06213 763-1382 limits assumed): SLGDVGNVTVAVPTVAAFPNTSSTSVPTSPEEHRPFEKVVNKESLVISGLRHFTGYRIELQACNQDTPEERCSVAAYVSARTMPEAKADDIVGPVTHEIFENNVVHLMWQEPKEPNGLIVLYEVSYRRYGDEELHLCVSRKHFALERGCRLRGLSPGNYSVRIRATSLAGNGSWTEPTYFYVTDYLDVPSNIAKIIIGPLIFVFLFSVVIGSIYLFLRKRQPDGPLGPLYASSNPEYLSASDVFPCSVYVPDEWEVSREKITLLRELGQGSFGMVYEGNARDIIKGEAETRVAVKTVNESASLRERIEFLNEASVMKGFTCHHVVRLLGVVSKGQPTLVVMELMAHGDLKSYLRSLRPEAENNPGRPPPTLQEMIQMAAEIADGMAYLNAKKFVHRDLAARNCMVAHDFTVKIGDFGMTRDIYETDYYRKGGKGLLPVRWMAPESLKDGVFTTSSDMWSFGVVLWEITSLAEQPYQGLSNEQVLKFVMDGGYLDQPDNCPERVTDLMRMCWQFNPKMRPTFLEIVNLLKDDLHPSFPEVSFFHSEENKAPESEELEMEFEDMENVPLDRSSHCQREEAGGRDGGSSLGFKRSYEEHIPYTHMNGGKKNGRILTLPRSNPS

[12] = biological target: Cyclin-dependent kinase 1/cyclin B1 (Homo sapiens) (UniProt P06493+P14635); assay: Inhibition of recombinant human His-tagged full length CDK1/Cyclin B expressed in baculovirus expression system using Ser/Thr 18 as substrate at 0.1 uM incubated for 60 mins by Z'-Lyte assay relative to control
[13] = biological target: cAMP-dependent protein kinase catalytic subunit alpha (Homo sapiens) (UniProt P17612); assay: Inhibition of recombinant human His-tagged PKA (1 to 351 residues) expressed in Escherichia coli expression system using Ser/Thr 01 as substrate at 0.1 uM incubated for 60 mins by Z'-lyte assay relative to control

Compound	inhibition [1] [%]	inhibition [2] [%]	inhibition [3] [%]	inhibition [4] [%]	inhibition [5] [%]	Ratio IC50 [6]	inhibition [7] [%]	inhibition [8] [%]	inhibition [9] [%]	inhibition [10] [%]	inhibition [11] [%]	inhibition [12] [%]	inhibition [13] [%]
O=C(Nc1c[nH]nc1-c1cc(Cl)ccc1OC(F)F)c1cnn2cccnc12	12	100	3	-8	-4	15	10	-2	5	9	6	53	5
O=C(Nc1c[nH]nc1-c1cc2ccccc2cc1OC(F)F)c1cnn2cccnc12	-7	95	0	0	3	83	-1	3	6	5	-8	27	5
Cn1cc(NC(=O)c2cnn3cccnc23)c(-c2cc(Cl)ccc2OC(F)F)n1	2	98	8	0	4	47	6	2	-1	11	4	4	-4
